# The source made the active and inactive calls. The rule behind the calls is not given here.
# Legend:
# Pseudomonas aeruginosa [1] = experiment: Antibacterial activity against Pseudomonas aeruginosa assessed as diameter of growth inhibition zone after 24 hrs by two fold serial dilution method; type: functional
# Escherichia coli [2] = experiment: Antibacterial activity against Escherichia coli assessed as diameter of growth inhibition zone after 24 hrs by two fold serial dilution method; type: functional
# Klebsiella pneumoniae [3] = experiment: Antibacterial activity against Klebsiella pneumoniae assessed as diameter of growth inhibition zone after 24 hrs by two fold serial dilution method; type: functional
# Staphylococcus aureus [4] = experiment: Antibacterial activity against Staphylococcus aureus assessed as diameter of growth inhibition zone after 24 hrs by two fold serial dilution method; type: functional
# Enterococcus [5] = experiment: Antibacterial activity against Enterococcus assessed as diameter of growth inhibition zone after 24 hrs by two fold serial dilution method; type: functional
# Pseudomonas aeruginosa [6] = experiment: Antibacterial activity against Pseudomonas aeruginosa assessed as growth inhibition after 24 hrs by two fold serial dilution method; type: functional
# Escherichia coli [7] = experiment: Antibacterial activity against Escherichia coli assessed as growth inhibition after 24 hrs by two fold serial dilution method; type: functional
# Klebsiella pneumoniae [8] = experiment: Antibacterial activity against Klebsiella pneumoniae assessed as growth inhibition after 24 hrs by two fold serial dilution method; type: functional
# Staphylococcus aureus [9] = experiment: Antibacterial activity against Staphylococcus aureus assessed as growth inhibition after 24 hrs by two fold serial dilution method; type: functional
# Enterococcus [10] = experiment: Antibacterial activity against Enterococcus assessed as growth inhibition after 24 hrs by two fold serial dilution method; type: functional
# [11] = Induction of DNA degradation in supercoiled plasmid DNA (unknown origin) by agarose gel electrophoresis in absence of UV light
# [12] = Induction of DNA degradation in open circular plasmid DNA (unknown origin) by agarose gel electrophoresis in absence of UV light
# [13] = Induction of DNA photocleavage in supercoiled plasmid DNA (unknown origin) at 60 ug by agarose gel electrophoresis in presence of UV light
# [14] = Induction of DNA photocleavage in open circular plasmid DNA (unknown origin) at 60 ug by agarose gel electrophoresis in presence of UV light
# [15] = Induction of DNA photocleavage in supercoiled plasmid DNA (unknown origin) at 30 ug by agarose gel electrophoresis in presence of UV light
# [16] = Induction of DNA photocleavage in open circular plasmid DNA (unknown origin) at 30 ug by agarose gel electrophoresis in presence of UV light
# [17] = Induction of DNA photocleavage in supercoiled plasmid DNA (unknown origin) at 15 ug by agarose gel electrophoresis in presence of UV light
# [18] = Induction of DNA photocleavage in open circular plasmid DNA (unknown origin) at 15 ug by agarose gel electrophoresis in presence of UV light
# HCT-116 [19] = experiment: Anticancer activity against human HCT116 cells assessed as cell viability after 48 hrs by MTT assay; type: functional, cell-based
# Escherichia coli [20] = experiment: Antibacterial activity against Escherichia coli assessed as growth inhibition after 24 hrs by two fold serial dilution method relative to ampicillin; type: functional; design: scale not given: the % may be the effect or the level left
# Pseudomonas aeruginosa [21] = experiment: Antibacterial activity against Pseudomonas aeruginosa assessed as growth inhibition after 24 hrs by two fold serial dilution method relative to ampicillin; type: functional; design: scale not given: the % may be the effect or the level left
# HCT-116 [22] = experiment: Anticancer activity against human HCT116 cells assessed as cell viability at 10 uM after 48 hrs by MTT assay; type: functional; details: HCT-116, 48 h, read-out: Activity
# HCT-116 [23] = experiment: Anticancer activity against human HCT116 cells assessed as cell viability at 25 uM after 48 hrs by MTT assay; type: functional; details: HCT-116, 48 h, read-out: Activity
# HCT-116 [24] = experiment: Anticancer activity against human HCT116 cells assessed as cell viability at 50 uM after 48 hrs by MTT assay; type: functional; details: HCT-116, 48 h, read-out: Activity
# SK-OV-3 = experiment: Anticancer activity against human SKOV3 cells assessed as cell viability after 72 hrs by MTT assay; type: functional, cell-based
# HT-29 [25] = experiment: Anticancer activity against human HT-29 cells assessed as cell viability at 50 uM after 72 hrs by MTT assay; type: functional, cell-based
# DU-145 [26] = experiment: Anticancer activity against human DU145 cells assessed as cell viability at 50 uM after 72 hrs by MTT assay; type: functional, cell-based
# [27] = Induction of DNA photocleavage in supercoiled plasmid DNA (unknown origin) at 5 ug by agarose gel electrophoresis in presence of UV light
# [28] = Induction of DNA photocleavage in open circular plasmid DNA (unknown origin) at 5 ug by agarose gel electrophoresis in presence of UV light
# [29] = Induction of DNA photocleavage in supercoiled plasmid DNA (unknown origin) at 2.5 ug by agarose gel electrophoresis in presence of UV light
# [30] = Induction of DNA photocleavage in open circular plasmid DNA (unknown origin) at 2.5 ug by agarose gel electrophoresis in presence of UV light
# [31] = Induction of DNA photocleavage in supercoiled plasmid DNA (unknown origin) at 1 ug by agarose gel electrophoresis in presence of UV light
# [32] = Induction of DNA photocleavage in open circular plasmid DNA (unknown origin) at 1 ug by agarose gel electrophoresis in presence of UV light
# Staphylococcus aureus [33] = experiment: Antibacterial activity against Staphylococcus aureus assessed as growth inhibition after 24 hrs by two fold serial dilution method relative to ampicillin; type: functional; design: scale not given: the % may be the effect or the level left
# HCT-116 [34] = experiment: Anticancer activity against human HCT116 cells assessed as cell viability after 72 hrs by MTT assay; type: functional, cell-based
# HT-29 [35] = experiment: Anticancer activity against human HT-29 cells assessed as cell viability after 72 hrs by MTT assay; type: functional, cell-based
# DU-145 [36] = experiment: Anticancer activity against human DU145 cells assessed as cell viability after 72 hrs by MTT assay; type: functional, cell-based
# A549 = experiment: Anticancer activity against human A549 cells assessed as cell viability after 72 hrs by MTT assay; type: functional, cell-based
# Enterococcus [37] = experiment: Antibacterial activity against Enterococcus assessed as growth inhibition after 24 hrs by two fold serial dilution method relative to ampicillin; type: functional; design: scale not given: the % may be the effect or the level left
Compound,diameter of the inhibition zone (DIZ) (Pseudomonas aeruginosa [1]),diameter of the inhibition zone (DIZ) (Escherichia coli [2]),diameter of the inhibition zone (DIZ) (Klebsiella pneumoniae [3]),diameter of the inhibition zone (DIZ) (Staphylococcus aureus [4]),diameter of the inhibition zone (DIZ) (Enterococcus [5]),MIC (Pseudomonas aeruginosa [6]),MIC (Escherichia coli [7]),MIC (Klebsiella pneumoniae [8]),MIC (Staphylococcus aureus [9]),MIC (Enterococcus [10]),Activity [11],Activity [12],Activity [13],Activity [14],Activity [15],Activity [16],Activity [17],Activity [18],Activity (HCT-116 [19]),viability at 10 µM (HCT-116 [22]),other results
Cc1cc(C)n(CC(=O)c2ccc(F)cc2)n1,11 mm,15 mm,9 mm,11 mm,15 mm,256 µg/mL,64 µg/mL,256 µg/mL,256 µg/mL,64 µg/mL,inactive,inactive,Active,Active,Active,Active,Active,Active,inactive,,Activity (Escherichia coli [20]): 12.5%; Activity (Pseudomonas aeruginosa [21]): 12.5%
CC1(C)S[C@@H]2[C@H](NC(=O)[C@H](N)c3ccccc3)C(=O)N2[C@H]1C(=O)O [AMPICILLIN],14 mm,16 mm,13 mm,16 mm,18 mm,8 µg/mL,8 µg/mL,2 µg/mL,2 µg/mL,2 µg/mL,,,,,,,,,,,
Cc1cc(C)n(CC(=O)c2cccc(Cl)c2)n1,,10 mm,,,10 mm,,512 µg/mL,,,512 µg/mL,inactive,inactive,,,,,,,inactive,,
Cc1cc(C)n(CC(=O)c2ccccc2)n1,13 mm,11 mm,10 mm,10 mm,13 mm,64 µg/mL,512 µg/mL,64 µg/mL,512 µg/mL,512 µg/mL,inactive,inactive,,,,,,,,81.4%,viability at 25 µM (HCT-116 [23]): 55.4%; viability at 50 µM (HCT-116 [24]): 52.4%; Activity (SK-OV-3): inactive; Activity (HT-29 [25]): inactive; Activity (DU-145 [26]): inactive; Activity (Escherichia coli [20]): 12.5%; Activity (Pseudomonas aeruginosa [21]): 12.5%
Cc1cc(C)n(CC(=O)c2ccccc2F)n1,11 mm,11 mm,,10 mm,10 mm,256 µg/mL,256 µg/mL,,256 µg/mL,256 µg/mL,inactive,inactive,,,,,,,inactive,,
Cc1ccc(C(=O)Cn2nc(C)cc2C)cc1,,11 mm,,11 mm,15 mm,,512 µg/mL,,256 µg/mL,64 µg/mL,inactive,inactive,,,,,,,inactive,,
Cc1cc(C)n(CC(=O)c2ccc([N+](=O)[O-])cc2)n1,,11 mm,,13 mm,14 mm,,256 µg/mL,,128 µg/mL,256 µg/mL,inactive,inactive,Active,Active,Active,Active,Active,Active,inactive,,Activity [27]: Active; Activity [28]: Active; Activity [29]: Active; Activity [30]: Active; Activity [31]: Active; Activity [32]: Active
Cc1cc(C)n(CC(=O)c2ccc(F)cc2F)n1,,9 mm,,10 mm,10 mm,,512 µg/mL,,256 µg/mL,512 µg/mL,inactive,inactive,Active,Active,Active,Active,inactive,inactive,inactive,,Activity [27]: inactive; Activity [28]: inactive; Activity [29]: inactive; Activity [30]: inactive; Activity [31]: inactive; Activity [32]: inactive
Cc1cc(C)n(CC(=O)c2ccc(Cl)cc2)n1,,14 mm,,12 mm,12 mm,,256 µg/mL,,256 µg/mL,512 µg/mL,inactive,inactive,,,,,,,inactive,,
Cc1cc(C)n(CC(=O)c2ccc(Br)cc2)n1,,14 mm,,14 mm,12 mm,,256 µg/mL,,32 µg/mL,512 µg/mL,inactive,inactive,Active,Active,Active,Active,Active,Active,,62.4%,Activity [27]: Active; Activity [28]: Active; Activity [29]: Active; Activity [30]: Active; Activity [31]: Active; Activity [32]: Active; viability at 25 µM (HCT-116 [23]): 55.9%; viability at 50 µM (HCT-116 [24]): 47.4%; Activity (SK-OV-3): inactive; Activity (HT-29 [25]): inactive; Activity (DU-145 [26]): inactive; Activity (Staphylococcus aureus [33]): 6.25%
Cc1cc(C)n(CC(=O)c2ccc3ccccc3c2)n1,14 mm,12 mm,11 mm,10 mm,15 mm,64 µg/mL,16 µg/mL,64 µg/mL,8 µg/mL,16 µg/mL,inactive,inactive,,,,,,,,56.8%,viability at 25 µM (HCT-116 [23]): 52.6%; viability at 50 µM (HCT-116 [24]): 36.5%; Activity (SK-OV-3): inactive; Activity (HCT-116 [34]): Active; Activity (HT-29 [35]): Active; Activity (DU-145 [36]): Active; Activity (A549): Active; Activity (Escherichia coli [20]): 50%; Activity (Staphylococcus aureus [33]): 25%; Activity (Pseudomonas aeruginosa [21]): 12.5%; Activity (Enterococcus [37]): 12.5%
Cc1cc(C)n(CC(=O)c2cccc3ccccc23)n1,,,,,12 mm,,,,,256 µg/mL,inactive,inactive,Active,Active,,,,,,73.4%,viability at 25 µM (HCT-116 [23]): 60.8%; viability at 50 µM (HCT-116 [24]): 34.6%; Activity (SK-OV-3): inactive; Activity (HT-29 [25]): inactive; Activity (DU-145 [26]): inactive; Activity (A549): Active

# — ChEMBL document CHEMBL3259522, “Synthesis and biological evaluation of some 2-(3,5-dimethyl-1H-pyrazol-1-yl)-1-arylethanones: antibacterial, DNA photocleavage, and anticancer activities” (2014)
